Measurements from publication PMC10385850, “Modified Hederagenin Derivatives Demonstrate Ex Vivo Anthelmintic Activity against Fasciola hepatica” (Pharmaceutics, 2023).
“Also recorded” adds a separate entry of the source. Read-outs that look alike come from different tables or passages of the source.

What was measured:
[1] = tested on: immature F. hepatica flukes (Italian strain); assay: Ex vivo motility assay on immature liver flukes (Italian strain), single concentration and dose response; type: cell-based, Fasciola hepatica; conditions: 40 µM; for Average motility of 4 parasites with 95% CI at 24 hour time point: score 1 normal to 5 no movement or death; for Effect on immature fluke motility, in words: by 72 h
Method: The six selected compounds (at 40 µM in 0.4% DMSO) were evaluated on immature flukes (n = 4/condition) at 24, 48 and 72 h (Table S4). The protocol for culturing and scoring (motility) of these life stages have been previously described. Due to restricted numbers of immature worms, a dose response assay was conducted only for MC042. Here, immature worms (n = 2/concentration tested) were screened against descending concentrations of MC042 (40 µM, 13.3 µM and 4.4 µM); motility scores were recorded at 24, 48 and 72 h (Table S5). The scoring pattern used is identical to that described for NEJs.

[2] = tested on: F. hepatica newly excysted juveniles (NEJs), Italian strain; assay: Ex vivo screen against newly excysted juveniles (NEJs), phenotype and motility scoring; type: cell-based, Fasciola hepatica; conditions: for Average motility of 25 NEJs with 95% CI, 24 hours / Average phenotype of 25 NEJs with 95% CI, 24 hours / Average motility of 25 NEJs with 95% CI, 48 hours / Average phenotype of 25 NEJs with 95% CI, 48 hours / Average motility of 25 NEJs with 95% CI, 72 hours / Average phenotype of 25 NEJs with 95% CI, 72 hours / Activity against NEJs (first screen), in words: 10 µM; for Average motility of 25 NEJs with 95% CI, 24 hours / Average motility of 25 NEJs with 95% CI, 48 hours / Average motility of 25 NEJs with 95% CI, 72 hours: motility score 1 good/normal to 5 no movement; for Average phenotype of 25 NEJs with 95% CI, 24 hours / Average phenotype of 25 NEJs with 95% CI, 48 hours / Average phenotype of 25 NEJs with 95% CI, 72 hours: ultrastructure score 1 normal to 6 dead or dissolved; for Activity against NEJs (first screen), in words: 72 h co-culture
Method: […] The NEJs were excysted from metacercariae and assayed at 10 μM (in 0.1% DMSO) final concentration alongside negative (0.1% DMSO) and positive (10 μM TCBZ, in 0.1% DMSO) controls as previously described. The MC and IVL compound series were screened separately.
The motility (1—good/normal; 2—moderate; 3—low; 4—very little; 5—no movement) and phenotypic (ultrastructural changes) scores were noted according to a previously described scoring matrix (Figure S1 and Table S2).

[3] = tested on: wild strain adult F. hepatica; assay: Ex vivo motility assay on adult liver flukes (wild strain); type: cell-based, Fasciola hepatica; conditions: 40 µM; for Effect on wild strain adult fluke motility, in words: 72 h; for Average motility of 4 parasites with 95% CI at 72 hour time point: wild strain adult flukes, score 1 good/normal to 6 no movement or dead
Method: Due to the high number of active molecules and a shortage of Italian strain adult liver flukes, the eleven hit compounds were screened for 72 h at 40 µM (in 0.4% DMSO) on wild strain adult F. hepatica (n = 4/condition) of unknown provenance (Table S3). The protocol for culturing and scoring (motility) the activity of these compounds was previously described (1—good/normal; 2—moderate; 3—resting (less than 10 s pulses of body and head), 4—apathetic (less than 2 s pulses of body and head), 5—paralysis and 6–no movement or dead worms). Six compounds were deemed active in these assays and were selected for further screening.

[4] = tested on: adult F. hepatica flukes (Italian strain); assay: Ex vivo dose response motility assay on adult liver flukes (Italian strain); type: cell-based, Fasciola hepatica; conditions: for Average motility of 3 parasites treated with 4.4 µM, 24 hours / Average motility of 3 parasites treated with 4.4 µM, 48 hours / Average motility of 3 parasites treated with 4.4 µM, 72 hours / Average motility of 3 parasites treated with 13.3 µM, 24 hours / Average motility of 3 parasites treated with 13.3 µM, 48 hours / Average motility of 3 parasites treated with 13.3 µM, 72 hours / Average motility of 3 parasites treated with 40 µM, 24 hours / Average motility of 3 parasites treated with 40 µM, 48 hours / Average motility of 3 parasites treated with 40 µM, 72 hours: adult flukes Italian strain, score 1 to 6; for EC50: adult flukes, motility
Method: The collection, ex vivo culturing and screening of adult liver fluke (Italian strain; n = 3/condition) was previously described. Dose response assays (40 µM, 13.3 µM and 4.4 µM) were conducted for MC014, MC042, MC035, MC055 and MC062 with motility scores recorded at 24, 48 and 72 h (Table S6).

[5] = tested on: Madin–Darby bovine kidney (MDBK) cells; assay: MTT cell viability assay on MDBK cells; type: cell-based
Method: MTT cell viability assays were performed on Madin–Darby bovine kidney (MDBK cells) for the five selected hederagenin derivatives (MC014, MC035, MC042, MC055 and MC062) using final concentrations of 100 μM, 75 μM, 50 μM, 25 μM, 10 μM, 5 μM and 1 μM (in 1% DMSO). Negative (1% v/v Triton X-100, Sigma-Aldrich, UK) and positive (1% v/v DMSO or media only) controls were included. The protocol was followed as previously described. Absolute EC50 values were calculated from the corrected absorbance of replicates by non-linear regression, after log transformation of concentrations and data normalization (where DMSO values represents 0% inhibition and TX-100 values represent 100% inhibition) using GrapPad Prism 8.

[6] = 48 h, immature flukes, score 1 to 5
[7] = 72 h, immature flukes, score 1 to 5

SMILES	Average motility of 4 parasites with 95% CI at 24 hour time point ([1]; 24 h, immature flukes)	Average motility of 4 parasites with 95% CI at 48 hour time point [1, 6]	Average motility of 4 parasites with 95% CI at 72 hour time point [1, 7]	Effect on immature fluke motility, in words [1]	Average motility of 25 NEJs with 95% CI, 24 hours ([2]; 24 h)	Average phenotype of 25 NEJs with 95% CI, 24 hours ([2]; 24 h)	Average motility of 25 NEJs with 95% CI, 48 hours ([2]; 48 h)	Average phenotype of 25 NEJs with 95% CI, 48 hours ([2]; 48 h)	Average motility of 25 NEJs with 95% CI, 72 hours ([2]; 72 h)	Average phenotype of 25 NEJs with 95% CI, 72 hours ([2]; 72 h)	Activity against NEJs (first screen), in words [2]	Effect on wild strain adult fluke motility, in words [3]	Average motility of 4 parasites with 95% CI at 72 hour time point [3]	Average motility of 3 parasites treated with 4.4 µM, 24 hours [4]	Average motility of 3 parasites treated with 4.4 µM, 48 hours [4]	Average motility of 3 parasites treated with 4.4 µM, 72 hours ([4]; 72 h)	Average motility of 3 parasites treated with 13.3 µM, 24 hours [4]	Average motility of 3 parasites treated with 13.3 µM, 48 hours [4]	Average motility of 3 parasites treated with 13.3 µM, 72 hours ([4]; 72 h)	Average motility of 3 parasites treated with 40 µM, 24 hours [4]	further results
CC1(C)CC[C@]2(C(=O)O)CC[C@]3(C)C(=CC[C@@H]4[C@@]5(C)CC[C@@H]6OC(C)(C)OC[C@@]6(C)[C@@H]5CC[C@]43C)[C@@H]2C1 [MC014]	5.00 (5.0;5.0)	5.00 (5.0;5.0)	5.00 (5.0;5.0)	paralyzed the assayed immature flukes	5.00 (5.0;5.0)	4.12 (3.5;4.6)	5.00 (5.0;5.0)	6.00 (6.0;6.0)	5.00 (5.0;5.0)	6.00 (6.0;6.0)	maximal alterations to both phenotype/ultrastructure and motility	no motility after 72 h; also recorded: performed very well	6.00 (6.0;6.0)	1.00 (1.0;1.0)	1.00 (1.0;1.0)	3.00 (1.8; 4.1)	1.33 (0.6;1.9)	1.66 (0.3;2.9)	3.33 (2.6;3.9)	3.33 (2.6;3.9)	Average motility of 3 parasites treated with 40 µM, 48 hours [4]: 4.00 (4.0;4.0); Average motility of 3 parasites treated with 40 µM, 72 hours ([4]; 72 h): 5.33 (4.0;6.6); EC50 ([4]; 24 h exposure, read-out: EC50 with 95% CI on Adult Flukes (motility), 24 hour): 13.5 µM; EC50 ([4]; 72 h, read-out: EC50 with 95% CI on Adult Flukes (motility), 72 hour): 9.3 µM; Effect on adult fluke (Italian strain) movement, in words ([4]; dose response, MC042 statement at 40 μM after 72 h): Decreased movement; CC50 with 95% CI on MDBK cells (cytotoxicity) ([5]; MDBK cells, MTT, 24 h exposure): Undefined ^c; Effect on MDBK cell proliferation, in words ([5]; dose response titration up to 100 μM): modest proliferative effect; Cytotoxicity on MDBK cells, in words ([5]; highest concentration tested 100 μM): not cytotoxic even at the highest concentration tested
CC(=O)OC[C@]12CCC(C)(C)CC1C1=CCC3[C@@]4(C)CC[C@H](O)[C@@](C)(CO)C4CC[C@@]3(C)[C@]1(C)CC2 (stereo partly drawn) [MC037, ((4aS,6aS,6bR,9R,10S,12aR)-10-Hydroxy-9-(hydroxymethyl)-2,2,6a,6b,9,12a-hexamethyl-1,3,4,5,6,6a, 6b,7,8,8a,9,10,11,12,12a,12b,13,14b-octadecahydropicen-4a(2H)-yl)methyl acetate]					5.00 (5.0;5.0)	6.00 (6.0;6.0)	5.00 (5.0;5.0)	6.00 (6.0;6.0)	5.00 (5.0;5.0)	6.00 (6.0;6.0)	maximal alterations to both phenotype/ultrastructure and motility	less severe motility defects	3.25 (2;4.4)								
CC(=O)OCC1(C)C(OC(C)=O)CCC2(C)C1CCC1(C)C2CC=C2C3CC(C)(C)CCC3(NC(=O)N3CCCC3)CCC21C (stereo not shown) [MC056]					5.00 (5.0;5.0)	6.00 (6.0;6.0)	5.00 (5.0;5.0)	6.00 (6.0;6.0)	5.00 (5.0;5.0)	6.00 (6.0;6.0)	maximal alterations to both phenotype/ultrastructure and motility	less severe motility defects; also recorded: limited activity	4.25 (3.3;5.1)								
CC(=O)OC[C@@]1(C)C2CC[C@]3(C)C(CC=C4C5CC(C)(C)CC[C@]5(NC(=O)N5CCCC5)CC[C@]43C)[C@@]2(C)CC[C@@H]1O (stereo partly drawn) [MC057, ((3S,4R,6aR,6bS,8aS,14bR)-3-Hydroxy-4,6a,6b,11,11,14b-hexamethyl-8a-(pyrrolidine-1-carbox-amido)-1,2,3,4,4a,5,6,6a,6b,7,8,8a,9,10,11,12,12a,14,14a, 14b-icosahydropicen-4-yl)-methyl acetate]	3.50 (2.5;4.4)	4.25 (3.3;5.1)	4.50 (3.5;5.4)	least active in this series	5.00 (5.0;5.0)	6.00 (6.0;6.0)	5.00 (5.0;5.0)	6.00 (6.0;6.0)	5.00 (5.0;5.0)	6.00 (6.0;6.0)	maximal alterations to both phenotype/ultrastructure and motility	partial paralysis	5.00 (5.0;5.0)								
CSc1nc2cc(Cl)c(Oc3cccc(Cl)c3Cl)cc2[nH]1 [Triclabendazole, reference compound]	5.0 (5.0,5.0)	5.0 (5.0,5.0)	5.0 (5.0,5.0)	completely immobile by 72 h									6.00 (6.0;6.0)	1.00 (1.0; 1.0)	1.00 (1.0; 1.0)	1.00 (1.0; 1.0)	1.00 (1.0;1.0)	1.33 (0.6;1.9)	2.00 (0.8; 3.1)	2.33 (1.6; 2.9)	Average motility of 2 parasites treated with 40 µM, 24 hours ([1]; 24 h, immature flukes, dose response, score 1 to 5): 5.00 (5.0; 5.0); Average motility of 2 parasites treated with 40 µM, 48 hours ([1]; 48 h, immature flukes, dose response, score 1 to 5): 5.00 (5.0; 5.0); Average motility of 2 parasites treated with 40 µM, 72 hours ([1]; 72 h, immature flukes, dose response, score 1 to 5): 5.00 (5.0; 5.0); Average motility of NEJs with 95% CI, 24 hours (positive control) ([2]; 40µM, 24 h, 50 NEJs, score 1 to 5): 5.00 (5.0;5.0); Average phenotype of NEJs with 95% CI, 24 hours (positive control) ([2]; 40µM, 24 h, 50 NEJs, score 1 to 6): 6.00 (6.0;6.0); Average motility of NEJs with 95% CI, 48 hours (positive control) ([2]; 40µM, 48 h, 50 NEJs, score 1 to 5): 5.00 (5.0;5.0); Average phenotype of NEJs with 95% CI, 48 hours (positive control) ([2]; 40µM, 48 h, 50 NEJs, score 1 to 6): 6.00 (6.0;6.0); Average motility of NEJs with 95% CI, 72 hours (positive control) ([2]; 40µM, 72 h, 50 NEJs, score 1 to 5): 5.00 (5.0;5.0); Average phenotype of NEJs with 95% CI, 72 hours (positive control) ([2]; 40µM, 72 h, 50 NEJs, score 1 to 6): 6.00 (6.0;6.0); Average motility of 3 parasites treated with 40 µM, 48 hours [4]: 5.66 (5.0; 6.3); Average motility of 3 parasites treated with 40 µM, 72 hours ([4]; 72 h): 6.00 (6.0; 6.0)
